Key:
Format in all cases: in vivo
Plutella xylostella = assay: Activity against Plutella xylostella (diamond back moth), artificial diet, eggs; settings: 192 h, application rate 200 ppm, 8 days after infestation, vs untreated, read-out: control in at least one of the two categories (mortality or growth inhibition)
Experimental: Example B7: Activity Against Plutella xylostella (Diamond Back Moth)
24-well microtiter plates with artificial diet were treated with aqueous test solutions prepared from 10′000 ppm DMSO stock solutions by pipetting. After drying, Plutella eggs were pipetted through a plastic stencil onto a gel blotting paper and the plate was closed with it. The samples were assessed for mortality and growth inhibition in comparison to untreated samples 8 days after infestation. The following compounds gave an effect of at least 80% control in at least one of the two categories (mortality or growth inhibition) at an application rate of 200 ppm: P1, P2, P3, P4, P6, P7, P8, P9, P10, P11, P12, P13, P14, P15, P16, P17, P18, P19, P20, P21, P22, P23, P24, P25, P26, P27.

Diabrotica balteata = assay: Activity against Diabrotica balteata (corn root worm), maize sprouts, L2 larvae; settings: 96 h, application rate 200 ppm, 4 days after infestation, vs untreated, read-out: control in at least one of the two categories (mortality or growth inhibition)
Experimental: Example B2: Activity Against Diabrotica balteata (Corn Root Worm)
Maize sprouts placed onto an agar layer in 24-well microtiter plates were treated with aqueous test solutions prepared from 10′000 ppm DMSO stock solutions by spraying. After drying, the plates were infested with L2 larvae (6 to 10 per well). The samples were assessed for mortality and growth inhibition in comparison to untreated samples 4 days after infestation.

Euschistus heros = assay: Activity against Euschistus heros (neotropical brown stink bug), soybean leaves, N2 nymphs; settings: 120 h, application rate 200 ppm, 5 days after infestation, vs untreated, read-out: effect in at least one of the two categories (mortality or growth inhibition)
Experimental: Example B3: Activity Against Euschistus heros (Neotropical Brown Stink Bug)
Soybean leaves on agar in 24-well microtiter plates were sprayed with aqueous test solutions prepared from 10′000 ppm DMSO stock solutions. After drying the leaves were infested with N2 nymphs. The samples were assessed for mortality and growth inhibition in comparison to untreated samples 5 days after infestation.

Spodoptera littoralis = assay: Activity against Spodoptera littoralis (Egyptian cotton leaf worm), cotton leaf discs, L1 larvae; settings: foliar, 72 h, application rate 200 ppm, 3 days after infestation, vs untreated, read-out: control in at least one of the three categories (mortality, anti-feedant effect, or growth inhibition)
Experimental: Example B8: Activity Against Spodoptera littoralis (Egyptian Cotton Leaf Worm)
Cotton leaf discs were placed onto agar in 24-well microtiter plates and sprayed with aqueous test solutions prepared from 10′000 ppm DMSO stock solutions. After drying the leaf discs were infested with five L1 larvae. The samples were assessed for mortality, anti-feeding effect, and growth inhibition in comparison to untreated samples 3 days after infestation. Control of Spodoptera littoralis by a test sample is given when at least one of the categories mortality, anti-feedant effect, and growth inhibition is higher than the untreated sample.

Myzus persicae [1] = assay: Activity against Myzus persicae (green peach aphid), intrinsic activity; settings: 120 h, test rate 12 ppm, 5 days after infestation, sucrose solution through Parafilm
Excerpt: Example B6: Activity Against Myzus persicae (Green Peach Aphid). Intrinsic Activity
Test compounds prepared from 10′000 ppm DMSO stock solutions were applied by pipette into 24-well microtiter plates and mixed with sucrose solution. The plates were closed with a stretched Parafilm. A plastic stencil with 24 holes was placed onto the plate and infested pea seedlings were placed directly on the Parafilm. The infested plate was closed with a gel blotting paper and another plastic stencil and then turned upside down. The samples were assessed for mortality 5 days after infestation.

Chilo suppressalis = assay: Activity against Chilo suppressalis (striped rice stemborer), artificial diet, L2 larvae; settings: 144 h, application rate 200 ppm, 6 days after infestation, vs untreated, read-out: control in at least one of the three categories (mortality, anti-feedant effect, or growth inhibition)
Experimental: Example B1: Activity Against Chilo suppressalis (Striped Rice Stemborer)
24-well microtiter plates with artificial diet were treated with aqueous test solutions prepared from 10′000 ppm DMSO stock solutions by pipetting. After drying, the plates were infested with L2 larvae (6-8 per well). The samples were assessed for mortality, anti-feeding effect, and growth inhibition in comparison to untreated samples 6 days after infestation. Control of Chilo suppressalis by a test sample is given when at least one of the categories mortality, anti-feedant effect, and growth inhibition is higher than the untreated sample.

Myzus persicae [2] = assay: Activity against Myzus persicae (green peach aphid), feeding/contact activity; settings: foliar, 144 h, application rate 200 ppm, 6 days after infestation, sunflower leaf discs, mixed ages
Experimental: Example B5: Activity Against Myzus persicae (Green Peach Aphid). Feeding/Contact Activity
Sunflower leaf discs were placed onto agar in a 24-well microtiter plate and sprayed with aqueous test solutions prepared from 10′000 ppm DMSO stock solutions. After drying, the leaf discs were infested with an aphid population of mixed ages. The samples were assessed for mortality 6 days after infestation.

C[C@@H](c1ncnn1-c1ccc(=O)n(C)n1)N(C)c1ncnc2c(Cl)cc(C(F)(F)F)cc12 [P23, 6-[5-[(1S)-1-[[8-chloro-6-(trifluoro-methyl)quinazolin-4-yl]-methyl-amino]ethyl]-1,2,4-triazol-1-yl]-2-methyl-pyr-idazin-3-one]
≥ 80%: percent control (mortality or growth inhibition) at 200 ppm (Plutella xylostella) | percent control (mortality or growth inhibition) at 200 ppm (Diabrotica balteata) | percent effect (mortality or growth inhibition) at 200 ppm (Euschistus heros) | percent control (mortality, anti-feedant effect or growth inhibition) at 200 ppm (Spodoptera littoralis) | mortality at 12 ppm (Myzus persicae [1]) | percent control (mortality, anti-feedant effect or growth inhibition) at 200 ppm (Chilo suppressalis)

C[C@H](Nc1ncnc2c(Cl)cc(C(F)(F)F)cc12)c1ncnn1-c1ccc(=O)n(C)n1 [P16, 6-[5-[(1S)-1-[[8-chloro-6-(trifluoro-methyl)quinazolin-4-yl]amino]ethyl]-1,2,4-triazol-1-yl]-2-methyl-pyrid-azin-3-one]
≥ 80%: percent control (mortality or growth inhibition) at 200 ppm (Plutella xylostella) | percent control (mortality or growth inhibition) at 200 ppm (Diabrotica balteata) | percent effect (mortality or growth inhibition) at 200 ppm (Euschistus heros) | percent control (mortality, anti-feedant effect or growth inhibition) at 200 ppm (Spodoptera littoralis) | mortality at 12 ppm (Myzus persicae [1]) | percent control (mortality, anti-feedant effect or growth inhibition) at 200 ppm (Chilo suppressalis)

C[C@H](Nc1ncnc2c(Br)cc(Br)cc12)c1ncnn1-c1ccc(=O)n(C)n1 [P18, 6-[5-[(1S)-1-[(6,8-dibromoquinazolin-4-yl)amino]ethyl]-1,2,4-triazol-1-yl]-2-methyl-pyridazin-3-one]
≥ 80%: percent control (mortality or growth inhibition) at 200 ppm (Plutella xylostella)

C[C@H](Nc1nc(Cl)nc2c(Cl)cc(C(F)(F)F)cc12)c1ncnn1-c1ccc(=O)n(C)n1 [P4, 6-[5-[(1S)-1-[[2,8-dichloro-6-(trifluoromethyl)quinazolin-4-yl]amino]ethyl]-1,2,4-triazol-1-yl]-2-methyl-pyridazin-3-one]
≥ 80%: mortality at 200 ppm (Myzus persicae [2]) | percent control (mortality or growth inhibition) at 200 ppm (Plutella xylostella) | percent control (mortality or growth inhibition) at 200 ppm (Diabrotica balteata) | percent control (mortality, anti-feedant effect or growth inhibition) at 200 ppm (Chilo suppressalis)

C[C@H](Nc1ncnc2c(C(F)(F)F)cc(Cl)cc12)c1ncnn1-c1ccc(=O)n(C)n1 [P2, 6-[5-[(1S)-1-[[6-chloro-8-(trifluoromethyl)quinazolin-4-yl]amino]ethyl]-1,2,4-triazol-1-yl]-2-methyl-pyridazin-3-one]
≥ 80%: mortality at 200 ppm (Myzus persicae [2]) | percent control (mortality or growth inhibition) at 200 ppm (Plutella xylostella) | percent control (mortality or growth inhibition) at 200 ppm (Diabrotica balteata) | percent effect (mortality or growth inhibition) at 200 ppm (Euschistus heros) | percent control (mortality, anti-feedant effect or growth inhibition) at 200 ppm (Spodoptera littoralis) | percent control (mortality, anti-feedant effect or growth inhibition) at 200 ppm (Chilo suppressalis)

CC(Nc1ncnc2c(C(F)(F)F)cc(C(F)(F)F)cc12)c1nccnc1-c1ccc(=O)n(C)n1 (stereo not drawn) [P8, 6-[3-[1-[[6,8-bis-(trifluoromethyl)-quinazolin-4-yl]amino]ethyl]pyr-azin-2-yl]-2-meth-yl-pyridazin-3-one]
≥ 80%: mortality at 200 ppm (Myzus persicae [2]) | percent control (mortality or growth inhibition) at 200 ppm (Plutella xylostella) | percent control (mortality or growth inhibition) at 200 ppm (Diabrotica balteata) | percent effect (mortality or growth inhibition) at 200 ppm (Euschistus heros) | percent control (mortality, anti-feedant effect or growth inhibition) at 200 ppm (Spodoptera littoralis) | mortality at 12 ppm (Myzus persicae [1]) | percent control (mortality, anti-feedant effect or growth inhibition) at 200 ppm (Chilo suppressalis)

C[C@H](Nc1ncnc2c(C(F)(F)F)cc(C(F)(F)F)cc12)c1ncnn1-c1ccc(=O)n(C)n1 [P3, 6-[5-[(1S)-1-[[6,8-bis(trifluoromethyl)quinazolin-4-yl]amino]ethyl]-1,2,4-triazol-1-yl]-2-methyl-pyridazin-3-one]
≥ 80%: mortality at 200 ppm (Myzus persicae [2]) | percent control (mortality or growth inhibition) at 200 ppm (Plutella xylostella) | percent control (mortality or growth inhibition) at 200 ppm (Diabrotica balteata) | percent effect (mortality or growth inhibition) at 200 ppm (Euschistus heros) | percent control (mortality, anti-feedant effect or growth inhibition) at 200 ppm (Spodoptera littoralis) | mortality at 12 ppm (Myzus persicae [1]) | percent control (mortality, anti-feedant effect or growth inhibition) at 200 ppm (Chilo suppressalis)

CCn1nc(-n2ncnc2[C@H](C)N(C)c2ncnc3c(Cl)cc(C(F)(F)F)cc23)ccc1=O [P22, 6-[5-[(1S)-1-[[8-chloro-6-(trifluoro-methyl)quinazolin-4-yl]-methyl-amino]ethyl]-1,2,4-triazol-1-yl]-2-ethyl-pyrid-azin-3-one]
≥ 80%: mortality at 200 ppm (Myzus persicae [2]) | percent control (mortality or growth inhibition) at 200 ppm (Plutella xylostella) | percent control (mortality or growth inhibition) at 200 ppm (Diabrotica balteata) | percent effect (mortality or growth inhibition) at 200 ppm (Euschistus heros) | percent control (mortality, anti-feedant effect or growth inhibition) at 200 ppm (Spodoptera littoralis) | mortality at 12 ppm (Myzus persicae [1]) | percent control (mortality, anti-feedant effect or growth inhibition) at 200 ppm (Chilo suppressalis)

C[C@H](Nc1nc(=O)n(C)c2c(Cl)cc(C(F)(F)F)cc12)c1ncnn1-c1ccc(=O)n(C)n1 [P1, 8-chloro-1-methyl-4-[[(1S)-1-[2-(1-methyl-6-oxo-pyridazin-3-yl)-1,2,4-triazol-3-yl]ethyl]amino]-6-(trifluoromethyl)quinazolin-2-one]
≥ 80%: percent control (mortality or growth inhibition) at 200 ppm (Plutella xylostella) | percent effect (mortality or growth inhibition) at 200 ppm (Euschistus heros) | percent control (mortality, anti-feedant effect or growth inhibition) at 200 ppm (Chilo suppressalis)

C[C@@H](c1ncnn1C1=NN(C)C(=O)CC1)N(C)c1ncnc2c(I)cc(Cl)cc12 [P26, 6-[5-[(1S)-1-[(6-chloro-8-iodo-quinazolin-4-yl)-methyl-amino]ethyl]-1,2,4-triazol-1-yl]-2-methyl-4,5-dihydropyridazin-3-one]
≥ 80%: percent control (mortality or growth inhibition) at 200 ppm (Plutella xylostella) | percent control (mortality or growth inhibition) at 200 ppm (Diabrotica balteata) | percent effect (mortality or growth inhibition) at 200 ppm (Euschistus heros) | percent control (mortality, anti-feedant effect or growth inhibition) at 200 ppm (Spodoptera littoralis) | mortality at 12 ppm (Myzus persicae [1]) | percent control (mortality, anti-feedant effect or growth inhibition) at 200 ppm (Chilo suppressalis)

C[C@H](Nc1ncnc2c(Cl)cc(I)cc12)c1ncnn1-c1ccc(=O)n(C)n1 [P20, 6-[5-[(1S)-1-[(8-chloro-6-iodo-quinazolin-4-yl)-amino]ethyl]-1,2,4-triazol-1-yl]-2-methyl-pyridazin-3-one]
≥ 80%: mortality at 200 ppm (Myzus persicae [2]) | percent control (mortality or growth inhibition) at 200 ppm (Plutella xylostella)

C[C@H](Nc1ncnc2c(I)cc(Cl)cc12)c1ncnn1C1=NN(C)C(=O)CC1 [P25, 6-[5-[(1S)-1-[(6-chloro-8-iodo-quinazolin-4-yl)amino]ethyl]-1,2,4-triazol-1-yl]-2-methyl-4,5-dihydropyridazin-3-one]
≥ 80%: percent control (mortality or growth inhibition) at 200 ppm (Plutella xylostella) | percent control (mortality or growth inhibition) at 200 ppm (Diabrotica balteata) | percent effect (mortality or growth inhibition) at 200 ppm (Euschistus heros) | percent control (mortality, anti-feedant effect or growth inhibition) at 200 ppm (Spodoptera littoralis) | mortality at 12 ppm (Myzus persicae [1]) | percent control (mortality, anti-feedant effect or growth inhibition) at 200 ppm (Chilo suppressalis)

C[C@@H](c1ncnn1-c1ccc(=O)n(C)n1)N(C)c1ncnc2c(Br)cc(Br)cc12 [P14, 6-[5-[(1S)-1-[(6,8-dibromoquinazolin-4-yl)-methyl-amino]ethyl]-1,2,4-triazol-1-yl]-2-methyl-pyridazin-3-one]
≥ 80%: mortality at 200 ppm (Myzus persicae [2]) | percent control (mortality or growth inhibition) at 200 ppm (Plutella xylostella) | percent control (mortality or growth inhibition) at 200 ppm (Diabrotica balteata) | percent effect (mortality or growth inhibition) at 200 ppm (Euschistus heros) | percent control (mortality, anti-feedant effect or growth inhibition) at 200 ppm (Spodoptera littoralis) | mortality at 12 ppm (Myzus persicae [1])

C[C@H](Nc1ncnc2c(I)cc(Cl)cc12)c1ncnn1-c1ccc(=O)n(C)n1 [P11, 6-[5-[(1S)-1-[(6-chloro-8-iodo-quinazolin-4-yl)-amino]ethyl]-1,2,4-triazol-1-yl]-2-methyl-pyridazin-3-one]
≥ 80%: percent control (mortality or growth inhibition) at 200 ppm (Plutella xylostella) | percent effect (mortality or growth inhibition) at 200 ppm (Euschistus heros) | percent control (mortality, anti-feedant effect or growth inhibition) at 200 ppm (Spodoptera littoralis) | mortality at 12 ppm (Myzus persicae [1]) | percent control (mortality, anti-feedant effect or growth inhibition) at 200 ppm (Chilo suppressalis)
